# According to ChEMBL document CHEMBL4842383 (J Med Chem, 2021):
# Tests used:
# [1] = molecular target: Macrophage colony-stimulating factor 1 receptor (Homo sapiens, UniProt P07333); assay: Inhibition of human recombinant GST-CSF1R (residues L534 to C972) expressed in Sf9 insect cells using poly(Glu,Tyr) as substrate incubated for 20 mins by ATP Kinase Glo assay
# NFS-60 = assay: Antiproliferative activity against mouse NFS-60 cells transfected with human ETV6-CSF1R assessed as reduction in cell viability measured after 72 hrs by MTS method; type: functional, cell-based; conditions: NFS-60, 72 h
# BaF3 = assay: Antiproliferative activity against mouse BaF3 cells transfected with human ETV6-CSF1R assessed as reduction in cell viability measured after 72 hrs by MTS method; conditions: BaF3, 72 h
# [2] = molecular target: T1, Aurora kinase A (Homo sapiens) (UniProt O14965); assay: Inhibition of recombinant GST-AURKA (residues Ser123 to Ser401) (unknown origin) expressed in Sf9 insect cells using tetra(-LRRASLG) peptide as substrate at 1 uM incubated for 90 mins by ATP Kinase Glo assay
# T1 sequence (whole entry): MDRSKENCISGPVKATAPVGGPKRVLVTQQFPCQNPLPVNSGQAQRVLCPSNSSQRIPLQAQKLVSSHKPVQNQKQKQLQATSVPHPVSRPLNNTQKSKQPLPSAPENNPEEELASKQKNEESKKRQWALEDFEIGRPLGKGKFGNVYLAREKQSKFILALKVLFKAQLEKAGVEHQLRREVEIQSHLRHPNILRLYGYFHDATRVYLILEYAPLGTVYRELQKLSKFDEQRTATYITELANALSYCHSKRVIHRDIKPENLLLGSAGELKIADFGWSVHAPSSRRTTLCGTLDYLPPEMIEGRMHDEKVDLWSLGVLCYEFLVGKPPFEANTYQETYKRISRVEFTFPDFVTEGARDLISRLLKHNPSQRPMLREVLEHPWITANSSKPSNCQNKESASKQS
# Aurora kinase B = Aurora kinase B (Homo sapiens, UniProt Q96GD4); assay: Inhibition of human recombinant full length GST-AURKB using tetra(-LRRASLG) peptide as substrate at 0.1 uM incubated for 20 mins by ATP Kinase Glo assay; type: biochemical; conditions: Sf9
# [3] = Tmax in Sprague-Dawley rat at 20 to 25 mg/kg, po measured up to 24 hrs by LC-MS/MS analysis; type: ADME, organism-based; conditions: in vivo, dose 20-25 mg/kg
# [4] = Dose normalized AUC (0 to inf) in Sprague-Dawley rat at 5 mg/kg, iv measured up to 24 hrs by LC-MS/MS analysis; type: ADME, organism-based; conditions: in vivo
# [5] = Volume of distribution at steady state in Sprague-Dawley rat at 5 mg/kg, iv measured up to 24 hrs by LC-MS/MS analysis; type: ADME, organism-based; conditions: in vivo, read-out: Vdss
# [6] = Clearance in Sprague-Dawley rat at 5 mg/kg, iv measured up to 24 hrs by LC-MS/MS analysis; type: ADME, organism-based; conditions: in vivo
# [7] = Half life in Sprague-Dawley rat at 20 to 25 mg/kg, po measured up to 24 hrs by LC-MS/MS analysis; type: ADME, organism-based; conditions: in vivo, dose 20-25 mg/kg
# [8] = Oral bioavailability in Sprague-Dawley rat at 20 to 25 mg/kg measured up to 24 hrs by LC-MS/MS analysis; type: ADME, organism-based; conditions: in vivo, dose 20-25 mg/kg
# [9] = Dose normalized AUC (0 to inf) in Sprague-Dawley rat at 20 to 25 mg/kg, po measured up to 24 hrs by LC-MS/MS analysis; type: ADME, organism-based; conditions: in vivo, dose 20-25 mg/kg
# [10] = Dose normalized Cmax in Sprague-Dawley rat at 20 to 25 mg/kg, po measured up to 24 hrs by LC-MS/MS analysis; type: ADME, organism-based; conditions: in vivo, dose 20-25 mg/kg
# [11] = Half life in Sprague-Dawley rat at 5 mg/kg, iv measured up to 24 hrs by LC-MS/MS analysis; type: ADME, organism-based; conditions: in vivo
# Aurora kinase A = molecular target: T2, Aurora kinase A (Homo sapiens, UniProt O14965); assay: Inhibition of recombinant GST-AURKA (residues Ser123 to Ser401) (unknown origin) expressed in Sf9 insect cells using tetra(-LRRASLG) peptide as substrate incubated for 90 mins by ATP Kinase Glo assay
# T2 sequence (O14965 whole entry): T1 sequence (whole entry)
# Aurora kinase B, sequence (Q96GD4 whole entry): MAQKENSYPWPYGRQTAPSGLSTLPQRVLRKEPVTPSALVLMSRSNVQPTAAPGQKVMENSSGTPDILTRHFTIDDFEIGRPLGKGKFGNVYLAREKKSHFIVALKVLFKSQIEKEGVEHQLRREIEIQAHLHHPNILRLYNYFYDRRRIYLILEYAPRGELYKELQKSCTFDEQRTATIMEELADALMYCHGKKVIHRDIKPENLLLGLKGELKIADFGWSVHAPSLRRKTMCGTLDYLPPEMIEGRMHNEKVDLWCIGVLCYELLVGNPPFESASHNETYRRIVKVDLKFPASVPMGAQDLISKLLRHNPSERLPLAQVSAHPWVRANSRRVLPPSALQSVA
# Macrophage colony-stimulating factor 1 receptor, sequence (P07333 whole entry, the tested form may be a part): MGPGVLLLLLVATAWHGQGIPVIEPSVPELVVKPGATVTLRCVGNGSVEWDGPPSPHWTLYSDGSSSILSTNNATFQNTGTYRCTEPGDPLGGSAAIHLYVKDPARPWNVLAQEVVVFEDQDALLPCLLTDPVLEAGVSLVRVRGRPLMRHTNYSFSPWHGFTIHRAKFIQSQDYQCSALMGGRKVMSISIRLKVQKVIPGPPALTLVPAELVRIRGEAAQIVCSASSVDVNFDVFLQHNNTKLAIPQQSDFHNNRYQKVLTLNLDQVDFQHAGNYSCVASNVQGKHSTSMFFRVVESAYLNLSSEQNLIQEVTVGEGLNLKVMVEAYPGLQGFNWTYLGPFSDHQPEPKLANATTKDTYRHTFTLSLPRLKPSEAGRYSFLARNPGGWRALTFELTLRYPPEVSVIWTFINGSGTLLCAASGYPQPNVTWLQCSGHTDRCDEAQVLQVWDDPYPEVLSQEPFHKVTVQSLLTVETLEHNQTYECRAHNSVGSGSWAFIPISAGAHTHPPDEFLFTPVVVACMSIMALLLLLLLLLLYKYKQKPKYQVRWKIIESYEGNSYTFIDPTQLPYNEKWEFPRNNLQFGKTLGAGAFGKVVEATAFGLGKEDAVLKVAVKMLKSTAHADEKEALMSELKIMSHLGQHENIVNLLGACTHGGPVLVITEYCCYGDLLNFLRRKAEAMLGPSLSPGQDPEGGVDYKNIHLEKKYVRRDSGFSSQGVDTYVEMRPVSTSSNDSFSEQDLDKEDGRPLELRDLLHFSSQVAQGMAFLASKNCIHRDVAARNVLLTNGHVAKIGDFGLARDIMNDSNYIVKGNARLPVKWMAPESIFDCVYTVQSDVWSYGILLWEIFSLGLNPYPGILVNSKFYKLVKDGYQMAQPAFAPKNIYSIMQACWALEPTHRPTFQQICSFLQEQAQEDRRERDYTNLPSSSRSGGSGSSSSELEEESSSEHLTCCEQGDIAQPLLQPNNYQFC
smiles,measurement,setting,value
COc1ccccc1NC(=O)Nc1ccc(Oc2ncnc3cc(N(C)C)ccc23)cc1,IC50,[1],0.03 µM
same,EC50,NFS-60,0.144 µM
same,EC50,BaF3,0.116 µM
same,inhibition,[2],24%
same,inhibition,Aurora kinase B,53%
CN(C)c1ccc2c(Oc3ccc(NC(=O)NCc4ccn(C)n4)cc3)ncnc2c1,IC50,[1],0.204 µM
same,EC50,BaF3,0.167 µM
same,inhibition,[2],58%
CNc1ccc2c(Oc3ccc(NC(=O)Nc4ccccc4)cc3)ncnc2c1,IC50,[1],0.044 µM
same,inhibition,[2],57%
same,inhibition,Aurora kinase B,76%
CN(C)c1ccc2c(Oc3ccc(NC(=O)NCc4c(F)c(F)c(F)c(F)c4F)cc3)ncnc2c1,IC50,[1],0.0186 µM
same,EC50,BaF3,0.108 µM
same,inhibition,[2],3%
same,inhibition,Aurora kinase B,34%
Cc1ccc(CNC(=O)Nc2ccc(Oc3ncnc4cc(N(C)C)ccc34)cc2)cn1,Tmax,[3],3.2 h
same,IC50,[1],0.011 µM
same,AUCt/dose,[4],1578 ng.hr/mL per mg/kg
same,Vd,[5],1.5 L/kg
same,EC50,NFS-60,0.068 µM
same,clearance,[6],5.6 mL/min/kg
same,half-life,[7],2.4 h
same,EC50,BaF3,0.038 µM
same,inhibition,[2],4%
same,bioavailability,[8],10.4%
same,AUCt/dose,[9],164 ng.hr/mL per mg/kg
same,Cmax/dose,[10],21 ng/mL
same,inhibition,Aurora kinase B,9%
same,half-life,[11],10.5 h
COc1ccc(CNC(=O)Nc2ccc(Oc3ncnc4cc(N(C)C)ccc34)cc2)cn1,Tmax,[3],2.3 h
same,IC50,[1],0.0127 µM
same,AUCt/dose,[4],767 ng.hr/mL per mg/kg
same,Vd,[5],1.4 L/kg
same,EC50,NFS-60,0.067 µM
same,clearance,[6],24.7 mL/min/kg
same,half-life,[7],4.8 h
same,EC50,BaF3,0.087 µM
same,inhibition,[2],2%
same,bioavailability,[8],30.7%
same,AUCt/dose,[9],236 ng.hr/mL per mg/kg
same,Cmax/dose,[10],35 ng/mL
same,inhibition,Aurora kinase B,18%
same,half-life,[11],1.2 h
COc1ccc2c(NCCc3cnc(NC(=O)Nc4cccc(Cl)c4)s3)ncnc2c1,IC50,[1],0.112 µM
same,IC50,Aurora kinase A,0.009 µM
same,inhibition,Aurora kinase B,89%
CN(C)c1ccc2c(Oc3ccc(NC(=O)Nc4ccccc4Cl)cc3)ncnc2c1,IC50,[1],0.0154 µM
same,EC50,NFS-60,0.145 µM
same,EC50,BaF3,0.066 µM
same,inhibition,[2],43%
same,inhibition,Aurora kinase B,79%
COc1ccc2c(Oc3ccc(NC(=O)Nc4ccccc4)cc3)ncnc2c1,IC50,[1],0.076 µM
same,inhibition,[2],36%
same,inhibition,Aurora kinase B,48%
CN(C)c1ccc2c(Oc3ccc(NC(=O)NCc4ccc(C(F)(F)F)cc4)cc3)ncnc2c1,IC50,[1],0.091 µM
same,EC50,NFS-60,0.097 µM
same,EC50,BaF3,0.152 µM
same,inhibition,[2],16%
same,inhibition,Aurora kinase B,25%
CN(C)c1ccc2c(Oc3ccc(NC(=O)NCc4cccnc4)cc3)ncnc2c1,IC50,[1],0.079 µM
same,EC50,NFS-60,0.152 µM
same,EC50,BaF3,0.087 µM
same,inhibition,[2],1%
same,inhibition,Aurora kinase B,15%
CN(C)c1ccc2c(Oc3ccc(NC(=O)NCCc4ccccc4)cc3)ncnc2c1,IC50,[1],0.0154 µM
same,EC50,NFS-60,0.162 µM
same,EC50,BaF3,0.082 µM
same,inhibition,[2],35%
same,inhibition,Aurora kinase B,35%
COc1ccc(Cl)cc1NC(=O)Nc1ccc(Oc2ncnc3cc(N(C)C)ccc23)cc1,IC50,[1],0.036 µM
same,EC50,NFS-60,0.141 µM
same,EC50,BaF3,0.086 µM
same,inhibition,[2],70%
same,inhibition,Aurora kinase B,41%
CN(C)c1ccc2c(Oc3ccc(NC(=O)Nc4ccc(C(F)(F)F)cc4)cc3)ncnc2c1,IC50,[1],0.064 µM
same,EC50,BaF3,0.049 µM
same,inhibition,[2],46%
same,inhibition,Aurora kinase B,37%
CN(C)c1ccc2c(Oc3ccc(NC(=O)NCc4ccc(C#N)cc4)cc3)ncnc2c1,IC50,[1],0.05 µM
same,EC50,NFS-60,0.023 µM
same,EC50,BaF3,0.0141 µM
same,inhibition,[2],5%
CN(C)c1ccc2c(Oc3ccc(NC(=O)NCc4ccc(S(N)(=O)=O)cc4)cc3)ncnc2c1,IC50,[1],0.0163 µM
same,EC50,NFS-60,1.09 µM
same,EC50,BaF3,0.662 µM
same,inhibition,[2],2%
same,inhibition,Aurora kinase B,62%
CN(C)c1ccc2c(Oc3ccc(NC(=O)Nc4cccc(Cl)c4)cc3)ncnc2c1,IC50,[1],0.0105 µM
same,EC50,NFS-60,0.055 µM
same,EC50,BaF3,0.02 µM
same,inhibition,[2],71%
same,inhibition,Aurora kinase B,82%
CN(C)c1ccc2c(Nc3ccc(NC(=O)Nc4ccccc4)cc3)ncnc2c1,IC50,[1],0.243 µM
same,inhibition,[2],33%
same,inhibition,Aurora kinase B,27%
CC(NC(=O)Nc1ccc(Oc2ncnc3cc(N(C)C)ccc23)cc1)c1nccs1 (stereo not given),IC50,[1],0.00141 µM
same,EC50,BaF3,0.158 µM
same,inhibition,[2],6%
O=C(Nc1cccc(Cl)c1)Nc1ncc(CCNc2ncnc3cc(F)ccc23)s1,IC50,[1],> 0.01 µM
same,IC50,Aurora kinase A,0.009 µM
same,inhibition,Aurora kinase B,83%
COc1ccc2c(Nc3ccc(NC(=O)Nc4ccccc4)cc3)ncnc2c1,IC50,[1],0.124 µM
same,inhibition,[2],56%
same,inhibition,Aurora kinase B,24%
CN(C)c1ccc2c(Oc3ccc(NC(=O)NCc4nccs4)cc3)ncnc2c1,IC50,[1],0.024 µM
same,EC50,NFS-60,0.202 µM
same,EC50,BaF3,0.318 µM
same,inhibition,[2],2%
same,inhibition,Aurora kinase B,19%
COc1ccc(CNC(=O)Nc2ccc(Oc3ncnc4cc(N(C)C)ccc34)cc2)cc1,Tmax,[3],6 h
same,IC50,[1],0.0129 µM
same,AUCt/dose,[4],1252 ng.hr/mL per mg/kg
same,Vd,[5],9 L/kg
same,EC50,NFS-60,0.081 µM
same,clearance,[6],16.5 mL/min/kg
same,half-life,[7],6.7 h
same,EC50,BaF3,0.091 µM
same,inhibition,[2],6%
same,bioavailability,[8],1.6%
same,AUCt/dose,[9],15 ng.hr/mL per mg/kg
same,Cmax/dose,[10],1.7 ng/mL
same,inhibition,Aurora kinase B,29%
same,half-life,[11],20.6 h
O=C(Nc1ccccc1)Nc1ccc(Oc2ncnc3ccc(N4CCCC4)cc23)cc1,IC50,[1],> 0.01 µM
same,inhibition,[2],11%
CN(C)c1ccc2c(Oc3ccc(NC(=O)NCc4ccccc4)cc3)ncnc2c1,IC50,[1],0.0163 µM
same,EC50,NFS-60,0.058 µM
same,EC50,BaF3,0.085 µM
same,inhibition,[2],7%
same,inhibition,Aurora kinase B,7%
COc1cc2ncnc(Oc3ccc(NC(=O)Nc4ccccc4)cc3)c2cc1OC,IC50,[1],0.03 µM
same,inhibition,[2],46%
CN(C)c1ccc2ncnc(Oc3ccc(NC(=O)Nc4ccccc4)cc3)c2c1,IC50,[1],0.041 µM
same,inhibition,[2],29%
CN(C)c1ccc2c(Oc3ccc(NC(=O)Nc4ccccc4)cc3)ncnc2c1,IC50,[1],0.021 µM
same,EC50,NFS-60,0.092 µM
same,EC50,BaF3,0.066 µM
same,inhibition,[2],40%
same,inhibition,Aurora kinase B,61%
O=C(Nc1ccccc1)Nc1ccc(Oc2ncnc3cc(N4CCCC4)ccc23)cc1,IC50,[1],0.063 µM
same,inhibition,[2],43%
same,inhibition,Aurora kinase B,43%
COc1cc(Oc2ccnc3cc(OC)c(OC)cc23)ccc1NC(=O)NC(C)c1nccs1 (stereo not given),EC50,NFS-60,0.077 µM
same,EC50,BaF3,0.076 µM
same,inhibition,[2],42%
same,inhibition,Aurora kinase B,47%
CN(C)c1ccc2c(Oc3ccc(NC(=O)Nc4cccc(C(F)(F)F)c4)cc3)ncnc2c1,IC50,[1],0.064 µM
same,EC50,BaF3,0.045 µM
same,inhibition,[2],35%
same,inhibition,Aurora kinase B,60%
Nc1ccc2c(Oc3ccc(NC(=O)Nc4ccccc4)cc3)ncnc2c1,IC50,[1],0.058 µM
same,inhibition,[2],47%
same,inhibition,Aurora kinase B,74%
COc1ccc(NC(=O)Nc2ccc(Oc3ncnc4cc(N(C)C)ccc34)cc2)cc1Cl,IC50,[1],0.0111 µM
same,EC50,NFS-60,0.053 µM
same,EC50,BaF3,0.043 µM
same,inhibition,[2],53%
same,inhibition,Aurora kinase B,44%
CN(C)CCCOc1ccc2c(NCCc3cnc(NC(=O)Nc4cccc(Cl)c4)s3)ncnc2c1,IC50,[1],0.019 µM
COc1ccc(CNC(=O)Nc2ccc(Oc3ncnc4cc(N(C)C)ccc34)cc2)cc1OC,IC50,[1],0.083 µM
same,EC50,BaF3,0.133 µM
same,inhibition,[2],4%
COc1cccc(NC(=O)Nc2ccc(Oc3ncnc4cc(N(C)C)ccc34)cc2)c1,IC50,[1],0.0116 µM
same,EC50,NFS-60,0.108 µM
same,EC50,BaF3,0.065 µM
same,inhibition,[2],46%
same,inhibition,Aurora kinase B,79%
CN(C)c1ccc2c(Oc3ccc(NC(=O)Nc4ccc(Cl)cc4)cc3)ncnc2c1,IC50,[1],0.164 µM
same,EC50,NFS-60,0.025 µM
same,EC50,BaF3,0.0184 µM
same,inhibition,[2],70%
same,inhibition,Aurora kinase B,50%
O=C(Nc1ccccc1)Nc1ccc(Oc2ncnc3cc(F)ccc23)cc1,IC50,[1],0.753 µM
same,inhibition,[2],13%
same,inhibition,Aurora kinase B,27%
